Assays:
Type in all cases: in vivo
Diabrotica balteata = experiment: Example B1: Diabrotica balteata (corn root worm), sprayed maize sprouts; conditions: 96 h, read-out: effect in at least one of the two categories (mortality or growth inhibition)
Experimental: Example B1: Diabrotica balteata (Corn Root Worm)
Maize sprouts placed onto an agar layer in 24-well microtiter plates were treated with aqueous test solutions prepared from 10,000 ppm DMSO stock solutions by spraying. After drying, the plates were infested with L2 larvae (6 to 10 per well). The samples were assessed for mortality and growth inhibition in comparison to untreated samples 4 days after infestation.

Myzus persicae = experiment: Example B4: Myzus persicae (green peach aphid), intrinsic activity; conditions: 120 h, test rate 12 ppm, 5 days after infestation
From the text: Example B4: Myzus persicae (Green Peach Aphid): Intrinsic Activity
Test compounds prepared from 10,000 ppm DMSO stock solutions were applied by pipette into 24-well microtiter plates and mixed with sucrose solution. The plates were closed with a stretched Parafilm. A plastic stencil with 24 holes was placed onto the plate and infested pea seedlings were placed directly on the Parafilm. The infested plate was closed with a gel blotting paper and another plastic stencil and then turned upside down. The samples were assessed for mortality 5 days after infestation.

Plutella xylostella = experiment: Example B4 (second): Plutella xylostella (diamond back moth), artificial diet; conditions: 120 h, application rate 200 ppm, L2 larvae, 5 days after infestation, read-out: effect in at least one of the two categories (mortality or growth inhibition)
Experimental: Example B4: Plutella xylostella (Diamond Back Moth)
24-well microtiter plates with artificial diet were treated with aqueous test solutions prepared from 10,000 ppm DMSO stock solutions by pipetting. After drying, the plates were infested with L2 larvae (10 to 15 per well). The samples were assessed for mortality and growth inhibition in comparison to untreated samples 5 days after infestation.

Spodoptera littoralis [1] = experiment: Example B5: Spodoptera littoralis (Egyptian cotton leaf worm), sprayed cotton leaf discs; conditions: foliar, 72 h, application rate 200 ppm, L1 larvae, 3 days after infestation, read-out: control (mortality, anti-feeding effect, growth inhibition)
Experimental: Example B5: Spodoptera littoralis (Egyptian Cotton Leaf Worm)
Cotton leaf discs were placed onto agar in 24-well microtiter plates and sprayed with aqueous test solutions prepared from 10,000 ppm DMSO stock solutions. After drying the leaf discs were infested with five L1 larvae. The samples were assessed for mortality, anti-feeding effect, and growth inhibition in comparison to untreated samples 3 days after infestation. Control of Spodoptera littoralis by a test sample is given when at least one of the categories mortality, anti-feedant effect, and growth inhibition is higher than the untreated sample.

Aedes aegypti = experiment: Example B11: insecticide impregnated polymer surfaces (LDPE sheets), Aedes aegypti; conditions: 2% active ingredient in LDPE sheets, after 48 h and/or 24 h
From the text: (§1) Example B11: Evaluation of Insecticide Impregnated Polymer Surfaces
(§2) Preparation of polymeric sheets: Compound P1.17 was impregnated into LDPE (low density polyethylene) by mixing the respective polymer with the compound at high temperatures and the resultant polymeric material was then mould into thin discs or plaques.
(§3) Twenty four hours prior to the relevant assessment intervals, three to five day old non-blood fed adult mosquitoes were taken from the culture and lightly anaesthetised with carbon dioxide. Ten females were selected and placed in a 250 ml plastic cup, retained with a net lid, provided with a 10% sucrose solution soaked in a cotton wool bung and held under culturing environmental conditions.
(§4) After twenty four hours, impregnated polymer sheets (measuring about 150 mm in diameter and about 0.1 mm in thickness) were removed from storage and wrapped around the glazed side of an 11 cm ceramic tile and held in place with an elastic band. The age of the polymer sheets used were either 1-2 weeks or 10 weeks old. A cup of the pre-selected mosquitoes were again lightly anaesthetised with carbon dioxide and transferred from the holding cup to the base of a 9 cm plastic Petri dish. The relevant impregnated polymer sheet was placed over the Petri dish and held in place with an elastic band. Once the mosquitoes had recovered from the anaesthetic, ca. 1 minute, the impregnated polymer sheet was placed on a holding rack, such that treated side was at an angle of 60° to the horizontal.
(§5) After one hour an assessment of mosquito knockdown was made. A mosquito was said to be knocked down if it was unable to right itself once it had fallen over. The mosquitoes were lightly anaesthetised again, and removed from the Petri dish exposure chamber and returned to the holding cups. The mosquitoes were supplied with a 10% sucrose solution soaked in a cotton wool bung and held under culturing environmental conditions. An assessment of mortality was made 24 hours and 48 hours after exposure. A mosquito was said to be dead if it is unable to right itself once it had fallen over.

Anopheles stephensi = experiment: Example B11: insecticide impregnated polymer surfaces (LDPE sheets), Anopheles stephensi; conditions: 2% active ingredient in LDPE sheets, after 48 h and/or 24 h
From the text: as §1, §2, §3, §4, §5

Euschistus heros = experiment: Example B2: Euschistus heros (neotropical brown stink bug), sprayed soybean leaves; conditions: 120 h, application rate 200 ppm, N2 nymphs, 5 days after infestation, read-out: effect in at least one of the two categories (mortality or growth inhibition)
Experimental: Example B2: Euschistus heros (Neotropical Brown Stink Bug)
Soybean leaves on agar in 24-well microtiter plates were sprayed with aqueous test solutions prepared from 10,000 ppm DMSO stock solutions. After drying the leaves were infested with N2 nymphs. The samples were assessed for mortality and growth inhibition in comparison to untreated samples 5 days after infestation.

Spodoptera littoralis [2] = experiment: Example B6: Spodoptera littoralis (Egyptian cotton leaf worm), root uptake by lettuce from agar; conditions: 144 h, test rate 12.5 ppm, 6 days after infestation, read-out: effect in at least one of the three categories (mortality, anti-feeding, or growth inhibition)
From the text: Example B6: Spodoptera littoralis (Egyptian Cotton Leaf Worm)
Test compounds were applied by pipette from 10,000 ppm DMSO stock solutions into 24-well plates and mixed with agar. Lettuce seeds were placed onto the agar and the multi well plate was closed by another plate which contained also agar. After 7 days the compound was absorbed by the roots and the lettuce grew into the lid plate. The lettuce leaves were then cut off into the lid plate. Spodoptera eggs were pipetted through a plastic stencil onto a humid gel blotting paper and the lid plate was closed with it. The samples were assessed for mortality, anti-feedant effect and growth inhibition in comparison to untreated samples 6 days after infestation.

Tetranychus urticae = experiment: Example B7: Tetranychus urticae (two-spotted spider mite), feeding/contact activity; conditions: 192 h, application rate 200 ppm, mixed population (mobile stages), 8 days after infestation
Experimental: Example B7: Tetranychus urticae (Two-Spotted Spider Mite): Feeding/Contact Activity
Bean leaf discs on agar in 24-well microtiter plates were sprayed with aqueous test solutions prepared from 10,000 ppm DMSO stock solutions. After drying the leaf discs were infested with a mite population of mixed ages. The samples were assessed for mortality on mixed population (mobile stages) 8 days after infestation.

CN1OC(c2ccc(-c3ccc(F)cc3)cc2)(C2CC2)N=C1NC(C)(C)C (stereo not shown) [Compound P1.137, N-tert-butyl-5-cyclopropyl-5-[4-(4-fluorophenyl)phenyl]-2-methyl-1,2,4-oxadiazol-3-amine]
≥ 80%: percent control (mortality or growth inhibition) at 200 ppm (Diabrotica balteata)

CN1OC(c2ccccc2)(C2CC2)N=C1N(C)C(C)(C)C (stereo not shown) [Compound P1.18, N-tert-Butyl-5-cyclopropyl-N,2-dimethyl-5-phenyl-1,2,4-oxadiazol-3-amine]
≥ 80%: percent control (mortality or growth inhibition) at 200 ppm (Diabrotica balteata)

CN1OC(c2ccccc2)(C2CC2)N=C1NC(C)(C)C (stereo not shown) [Compound P1.17, N-tert-Butyl-5-cyclopropyl-2-methyl-5-phenyl-1,2,4-oxadiazol-3-amine]
≥ 80%: percent control (mortality or growth inhibition) at 200 ppm (Diabrotica balteata) | mortality at 12 ppm (Myzus persicae) | percent effect (mortality or growth inhibition) at 200 ppm (Plutella xylostella) | mortality at 200 ppm (Spodoptera littoralis [1])
at least 80%: control of Aedes Aegypti (Aedes aegypti; sheet after 1 week) | control of Aedes Aegypti (Aedes aegypti; sheet after 2 weeks) | control of Aedes Aegypti (Aedes aegypti; sheet after 10 weeks) | control of Anopheles stephensi (Anopheles stephensi; sheet after 1 week) | control of Anopheles stephensi (Anopheles stephensi; sheet after 2 weeks) | control of Anopheles stephensi (Anopheles stephensi; sheet after 10 weeks)

CN1OC(c2ccc(F)cc2)(C2CC2)N=C1NC(C)(C)C(F)(F)F (stereo not shown) [Compound P1.88, 5-Cyclopropyl-5-(4-fluorophenyl)-2-methyl-N-(2,2,2-trifluoro-1,1-dimethyl-ethyl)-1,2,4-oxadiazol-3-amine]
≥ 80%: percent control (mortality or growth inhibition) at 200 ppm (Diabrotica balteata) | percent effect (mortality or growth inhibition) at 200 ppm (Euschistus heros) | mortality at 12 ppm (Myzus persicae) | percent effect (mortality or growth inhibition) at 200 ppm (Plutella xylostella) | mortality at 200 ppm (Spodoptera littoralis [1]) | percent effect (mortality, anti-feeding or growth inhibition) at 12.5 ppm (Spodoptera littoralis [2]) | mortality at 200 ppm (Tetranychus urticae)

CN1OC(c2ccc(C#N)cc2)(C2CC2)N=C1NC(C)(C)C (stereo not shown) [Compound P1.136, 4-[3-(tert-butylamino)-5-cyclopropyl-2-methyl-1,2,4-oxadiazol-5-yl]benzonitrile]
≥ 80%: percent control (mortality or growth inhibition) at 200 ppm (Diabrotica balteata)

CCC1(c2ccccc2)N=C(NC(C)(C)C)N(C)O1 (stereo not shown) [Compound P1.94, N-tert-Butyl-5-ethyl-2-methyl-5-phenyl-1,2,4-oxadiazol-3-amine]
≥ 80%: percent control (mortality or growth inhibition) at 200 ppm (Diabrotica balteata) | mortality at 200 ppm (Tetranychus urticae)

From US20180360040A1, “PESTICIDAL COMPOUNDS AND THEIR USES” (priority 2015, published 2018)
